Broadly, the EC50 is the concentration giving half of the maximal effect. The low end stands for greater potency, the high end for weaker potency.

The assay deals with sodium channel isoforms (Homo sapiens, UniProt P35498). Format: cell-based. The note with it: area under the sodium current trace, step from −120 mV to 0 mV, HEK cells. As for the experimental part:
The sodium channel isoforms of interest are stably expressed in Human Embryonic Kidney Cells and the currents that flow through those channels in response to a depolarizing voltage clamp step from −120 mV to 0 mV are measured in the presence of increasing concentrations of the chemical agents. The area under the sodium current trace which correlates to the magnitude of sodium flux through the cell membrane is used to quantify the effects on gating of the channels. Other parameters that are measured in the assay include the peak current, time constant of open state inactivation and the voltage dependence of steady state inactivation properties. The concentration responses are used to determine potency of each chemical agents effects on modulating the sodium channel isoform gating. Such techniques are known to those skilled in the art, and may be developed, using current technologies, into low or medium throughput assays for evaluating compounds for their ability to modulate sodium channel behaviour.
Take `CC(C)c1ncc(C(=O)Nc2c(-c3ccccc3)ccnc2C2CCCO2)cn1` (racemic) [Example 11, (±)-2-isopropyl-N-(4-phenyl-2-(tetrahydrofuran-2-yl)pyridin-3-yl)pyrimidine-5-carboxamide]: the “Empirical Emax” value is listed as “+ (+ indicates a value less than 2.0 μM)”. As to `CC(C)c1ncc(C(=O)Nc2c(-c3ccccc3F)ccnc2C2CCCCO2)cn1` (centres unmarked) [Example 18, N-[4-(2-fluorophenyl)-2-tetrahydropyran-2-yl-3-pyridyl]-2-isopropyl-pyrimidine-5-carboxamide], the “Empirical Emax” value is “+++ (+++ indicates a value from 5.0 up to 7.5 μM)”.

As to `Fc1ccc(F)c(-c2ccnc(C3CCC(F)(F)C3)c2-c2nc3c([nH]2)COCC3)c1` (centres unmarked) [Example 48, 2-(2-(3,3-difluorocyclopentyl)-4-(2,5-difluorophenyl)pyridin-3-yl)-3,4,6,7-tetrahydropyrano[3,4-d]imidazole], the “Empirical Emax” value is “+++ (+++ indicates a value from 5.0 up to 7.5 μM)”. On the same count and under the same terms, the result for `CC(C)c1ccc(NC(=O)c2c(-c3ccccc3F)ccnc2C2=CCOCC2)cn1` [Example 52] reads “+ (+ indicates a value less than 2.0 μM)”; that for `CCOc1ncc(C(=O)Nc2c(-c3ccccc3F)ccnc2C2CCC(F)(F)CC2)cn1` [Example 3, N-[2-(4,4-difluorocyclohexyl)-4-(2-fluorophenyl)-3-pyridyl]-2-ethoxy-pyrimidine-5-carboxamide], “++++ (++++ indicates a value greater than 7.5)”. Molecule `O=C(Nc1c(-c2cc(F)ccc2F)ccnc1C1CCC(F)(F)CC1)c1cnc(N2C3CCC2CC3)nc1` [Example 177, 2-(7-azabicyclo[2.2.1]heptan-7-yl)-N-(2-(4,4-difluorocyclohexyl)-4-(2,5-difluorophenyl)pyridin-3-yl)pyrimidine-5-carboxamide] came in with an EC50 of less than 1000 nM. In turn, `O=C(Nc1c(-c2cc(F)ccc2F)ccnc1C1CCC(F)(F)CC1)c1cnc(N2CC3CC(C3)C2)nc1` [Example 166, 2-(3-azabicyclo[3.1.1]heptan-3-yl)-N-(2-(4,4-difluorocyclohexyl)-4-(2,5-difluorophenyl)pyridin-3-yl)pyrimidine-5-carboxamide] had an EC50 of less than 1000 nM. As for `CO[C@H]1CC[C@@H](c2nccc(-c3ccccc3F)c2NC(=O)c2cnc(C(C)C)nc2)CC1` [Example 38], the “Empirical Emax” value is recorded as “+ (+ indicates a value less than 2.0 μM)”.

Values taken from US20250129044A1 (priority 2021, published 2025).
